Source: ChEMBL document CHEMBL4819091, “Identification of novel gankyrin binding scaffolds by high throughput virtual screening” (Bioorg Med Chem Lett, 2021)
pIC50: −log10 of the molar value. Active and inactive are the calls of the source. No cut-off for these calls is given here.

Assays:
[1] = target: T1, 26S proteasome non-ATPase regulatory subunit 10 (Homo sapiens) (UniProt O75832); assay: Binding affinity to recombinant human His-tagged gankyrin expressed in Escherichia coli assessed as change in melting temperature at 300 uM by SYPRO orange dye based thermal shift assay
T1 sequence (whole entry): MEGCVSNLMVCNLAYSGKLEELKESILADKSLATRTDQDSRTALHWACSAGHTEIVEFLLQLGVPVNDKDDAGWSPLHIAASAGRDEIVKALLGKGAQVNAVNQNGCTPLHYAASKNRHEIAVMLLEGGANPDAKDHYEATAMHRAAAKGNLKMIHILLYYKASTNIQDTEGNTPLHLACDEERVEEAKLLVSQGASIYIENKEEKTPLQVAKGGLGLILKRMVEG

[2] = system: A549; assay: Cytotoxicity against human A549 cells assessed as reduction in cell viability incubated for 72 hrs by MTT assay; format: functional, cell-based; conditions: A549, 72 h
[3] = system: MDA-MB-231; assay: Cytotoxicity against human MDA-MB-231 cells assessed as reduction in cell viability incubated for 72 hrs by MTT assay; format: functional, cell-based; conditions: MDA-MB-231, 72 h
[4] = system: HepG2; assay: Cytotoxicity against human HepG2 cells assessed as reduction in cell viability incubated for 72 hrs by MTT assay; format: functional, cell-based; conditions: HepG2, 72 h
[5] = system: Hep 3B2; assay: Cytotoxicity against human Hep3B cells assessed as reduction in cell viability incubated for 72 hrs by MTT assay; format: functional, cell-based
[6] = Cytotoxicity against human HuH-6 cells assessed as reduction in cell viability incubated for 72 hrs by MTT assay; format: functional, cell-based; conditions: HuH-6, 72 h
[7] = target: T1, 26S proteasome non-ATPase regulatory subunit 10 (Homo sapiens); assay: Inhibition of gankyrin in human HuH-6 cells assessed as increase in p53 level at 25 to 100 uM by immunoblot assay; format: cell-based; conditions: dose 25-100 µM
[8] = target: T1, 26S proteasome non-ATPase regulatory subunit 10 (Homo sapiens); assay: Inhibition of gankyrin in human HuH-6 cells assessed as increase in phopho-Rb level at 25 to 100 uM by immunoblot assay; format: cell-based; conditions: dose 25-100 µM
[9] = target: T1, 26S proteasome non-ATPase regulatory subunit 10 (Homo sapiens); assay: Inhibition of gankyrin in human Hep3B cells assessed as increase in p53 level at 12.5 to 50 uM by immunoblot assay; format: cell-based; conditions: dose 12.5-50 µM
[10] = target: T1, 26S proteasome non-ATPase regulatory subunit 10 (Homo sapiens); assay: Inhibition of gankyrin in human Hep3B cells assessed as increase in CUGBP1 level at 12.5 to 50 uM by immunoblot assay; format: cell-based; conditions: dose 12.5-50 µM
[11] = system: A549; assay: Potency index, ratio of IC50 of Cjoc42 to IC50 of compound for cytotoxicity against human A549 cells assessed as reduction in cell viability incubated for 72 hrs by MTT assay; format: functional
[12] = system: MDA-MB-231; assay: Potency index, ratio of IC50 of Cjoc42 to IC50 of compound for cytotoxicity against human MDA-MB-231 cells assessed as reduction in cell viability incubated for 72 hrs by MTT assay; format: functional
[13] = system: HepG2; assay: Potency index, ratio of IC50 of Cjoc42 to IC50 of compound for cytotoxicity against human HepG2 cells assessed as reduction in cell viability incubated for 72 hrs by MTT assay; format: functional
[14] = system: Hep 3B2; assay: Potency index, ratio of IC50 of Cjoc42 to IC50 of compound for cytotoxicity against human Hep3B cells assessed as reduction in cell viability incubated for 72 hrs by MTT assay; format: functional
[15] = Potency index, ratio of IC50 of Cjoc42 to IC50 of compound for cytotoxicity against human HuH-6 cells assessed as reduction in cell viability incubated for 72 hrs by MTT assay; format: functional

| SMILES | ΔTm [1] [°C] | inhibition [7] | inhibition [8] | inhibition [9] | inhibition [10] | pIC50 [2] | pIC50 [3] | pIC50 [4] | pIC50 [5] | pIC50 [6] | Ratio IC50 [11] | Ratio IC50 [12] | Ratio IC50 [13] | Ratio IC50 [14] | Ratio IC50 [15] |
| --- | --- | --- | --- | --- | --- | --- | --- | --- | --- | --- | --- | --- | --- | --- | --- |
| O=C(O)COc1ccc(CC(=O)O)cc1-c1cc(-c2ccc(Cl)cc2)n(CCc2ccccc2)n1 | 1.94 | Active | Active | Active | Active | < 4.00 | < 4.00 | < 4.00 | < 4.00 | < 4.00 | – | – | – | – | – |
| CS(=O)(=O)Cc1cccc(C(=O)NS(=O)(=O)c2ccc(S(C)(=O)=O)cc2)c1 | 0.29 | – | – | – | – | – | – | – | – | – | – | – | – | – | – |

Second part, led by results:

| ΔTm [1] [°C] | inhibition [7] | inhibition [8] | inhibition [9] | inhibition [10] | SMILES | pIC50 [2] | pIC50 [3] | pIC50 [4] | pIC50 [5] | pIC50 [6] | Ratio IC50 [11] | Ratio IC50 [12] | Ratio IC50 [13] | Ratio IC50 [14] | Ratio IC50 [15] |
| --- | --- | --- | --- | --- | --- | --- | --- | --- | --- | --- | --- | --- | --- | --- | --- |
| 0.17 | – | – | – | – | COc1cccc2c1O[C@@](C)(CCC(=O)O)[C@@H]1CC[C@@H](CCCN)O[C@@H]21 | – | – | – | – | – | – | – | – | – | – |
| 7.92 | – | – | – | – | O=C(O)CN(Cc1ccc(Cl)cc1)C(=O)c1cnc(N2CCC[C@H]2COc2ccc(Cl)cc2)nc1CCc1ccccc1 | 4.34 | 4.06 | 4.28 | 4.59 | 4.35 | 2.2 | 1.1 | 1.9 | 3.9 | 1.6 |
| 0.5 | – | – | – | – | COC(=O)c1ccc(-n2cc(CCCOS(=O)(=O)c3ccc(C)cc3)nn2)cc1 | < 4.00 | < 4.00 | < 4.00 | < 4.00 | 4.15 | – | – | – | – | – |
